Melting point data for 35 compounds are collected here from a melting point compilation (Tetko et al.; mined from patent text by program, amines drawn as free bases though some values may be those of a salt).

As to `COc1ccc2cc(-c3ccccc3)cc(CCNC(C)=O)c2c1`, the melting point worked out at 135 °C.
For `N#CC1OC(=O)c2c(F)cccc21` (stereo not given), the melting point fell in the range of 117 to 120 °C.
Next, `CS(=O)(=O)c1cccc(NC(=O)c2cnn3c(C(F)F)cc(-c4ccc(C(F)(F)F)cc4)nc23)c1`: 251 °C; `CN1Cc2c(C#CBr)ncn2-c2ccc(F)cc2C1=O`: 167 °C.
`CCN1C(=O)N(c2cccc(C#N)c2C(F)(F)F)C(=O)C1(C)COC(=O)C(C)C` (stereo not given) showed a melting point of 85 °C.
In turn, `Cc1c(Cc2ccc(N3C(=O)C=CC3=O)c(C)c2C)ccc(N2C(=O)C=CC2=O)c1C` registered a melting point of 210 to 220 °C.
`CCN(CC)C(=O)Oc1nc(C)c2cc(OC)c(OC)cc2c1NC(N)=O` came in with a melting point of 215 to 216 °C.
As to `COc1cccc2c(=O)c3ccc(SC)cc3oc12`, the melting point lay within 201 to 203 °C.
Next, `O=C(O)CCSCCCCCCCCCCCCF`: 59 °C.
With `CCC(=O)N(C)c1cccc(-c2ccc3nnc(C)n3n2)c1` the figure was 150 to 152 °C; with `CCCOc1ccccc1-c1nc2nnc(N)nc2c(=O)[nH]1`, 322 to 325 °C.
For `CC(C)(C)c1ccccc1N1CCN(C(=O)CCC(=O)O)CC1`, the melting point lay within 175 to 176 °C.
As for `NC(=O)Cc1ccc(-c2ccc(F)cc2F)c(F)c1`, the melting point lay within 137 to 140 °C.
With `CCN=C(NCc1ccccc1)NN=Cc1c(Cl)cccc1Cl` the figure was 101 to 103 °C.
Take `CC1(C)OC[C@H](Cn2cc3nccc(I)c3n2)O1`: the melting point is 85 to 87 °C.
As for `O=c1[nH]c2ccc(Cl)cc2c(=O)c2ccccc12`, the melting point fell in the range of 289 to 293 °C.
`CCOC(=O)C1=C(N)N=C(OCC)C(C(=O)OCC)C1c1cccc([N+](=O)[O-])c1` (stereo not given) registered a melting point of 129 °C.
The compound `CCC(CC)c1ccc(Cl)c2nc3n(c12)CCCCN3c1ncc(C(N)=O)cc1C` displayed a melting point of 234 to 235 °C.
For `O=C(c1cc(C(F)(F)F)cc(C(F)(F)F)c1)N1CCN(C(=O)CNC2CCN(Cc3ccccc3)CC2)C(c2ccccc2)C1` (racemic), the melting point fell in the range of 65 to 67 °C.
With `Cc1cc2c(c(C)c1S(=O)(=O)C[N+](=O)[O-])CCC(C)(C)O2` the figure was 110 to 111 °C.
`COc1ccc([N+](=O)[O-])c(Nc2cccc(O)c2)n1`: the melting point lay within 156 to 158 °C.
The compound `COC(=O)c1cccc(-c2nc(-c3cccc(C(F)(F)F)c3)cs2)c1` registered a melting point of 105 to 106 °C.
Compound `O=C1CC(c2ccc(-c3ccc(Br)cc3)cc2)Cc2ccccc21` (stereo not given) displayed a melting point of 156 to 158 °C.
As for `CN(C)S(=O)(=O)OCCOc1ccc(-n2ccnc2)cc1`, the melting point fell in the range of 120 to 123 °C.
`CC(=O)SCCC(=O)[C@H]1CC[C@H]1C(=O)O` (relative stereo) displayed a melting point of 50 to 54 °C.
`O=C(O)CC12CCC(=O)N1C(=O)CC2` displayed a melting point of 177 to 180 °C.
Next, `CC(=O)O[C@@H]1[C@H](OC(C)=O)[C@@H](C)O[C@H]1n1c(Cl)nc2c(Cl)c(Cl)c(Cl)cc21`: 126 to 127 °C; `CCOC(=O)C(C)(C)n1c(=O)[nH]c2cccc(F)c2c1=O`: 168 to 170 °C.
In the case of `COC(=O)C1=C(C)NC(C)=C(C(=O)OCCN2CCN(C(c3ccc(OC)cc3)c3ccc(OC)cc3)CC2)C1c1cccc([N+](=O)[O-])c1` (stereo not given), the melting point lay in the range of 76 to 80 °C.
Regarding `O=C(CCl)NC1CCc2ccccc2C1=O` (stereo not given), the melting point lay in the range of 118 to 122 °C.
With `CC(C)(C)NC(=O)[C@@H]1CSCN1C(=O)OCc1ccccc1` the figure was 96 to 98 °C; with `COc1cnc2c(c1)c(CCNC(=O)c1ccco1)c1n2CCCO1`, 70 to 71 °C; with `CCOC(=O)CCCCOc1cccc(O)c1C=O`, 32 to 33 °C.
On to `CCOC(=O)C(Cc1ccc(OCCNC(=O)c2ccc(-c3ccccc3)cc2)cc1)Oc1ccccc1` (stereo not given), for which the melting point was in the range of 103 to 104 °C.
For the compound `CC(C)(c1cc(F)cc([N+](=O)[O-])c1O)c1cc(F)cc([N+](=O)[O-])c1O`, the melting point was 138 °C.

Usually melting point stands for the temperature of the solid-liquid transition.
